Source: patent US20230286973A1, “PROTEIN SECRETION INHIBITORS” (KEZAR LIFE SCIENCES, priority 2020, published 2023)
Where two headings read alike, the source gives them in different places.

Assays:
[1] = Liver Microsome Stability Assay (monkey); settings: monkey liver microsomes, with NADPH, 1.0 uM compound
Method: (§1) Stability of a compound was assessed in the presence of liver microsomes from various sources—mouse, rat, monkey and human liver microsomes. 1.0 uM compound, 0.4% DMSO in 0.1 M Potassium Phosphate with 1.0 mg/mL liver microsomes, were incubated at 37° C. with or without 1 mM NADPH. The samples were quenched at 0, and 30 minutes.

[2] = Liver Microsome Stability Assay (mouse); settings: mouse liver microsomes, with NADPH, 1.0 uM compound
Method: as §1

[3] = Liver Microsome Stability Assay (human); settings: human liver microsomes, with NADPH, 1.0 uM compound
Method: as §1

[4] = test system: TNFα-FL/Gaussia Luciferase; assay: Dox Induced TNFα-FL-Gluc Assay; format: cell-based; settings: for IC50: 24 hr Dox induction, 293FRT/TO cells, read-out: 24 hr Dox Inducible TNFaFLGluc 293FRT/TO: Mean IC50; for 24 hr Dox Inducible TNFaFLGluc 293FRT/TO: TNF/PD1: ratio of TNFaFLGluc IC50 to PD1ssGluc IC50
Summary of the method: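 Cells are seeded one day ahead, then treated with compound plus doxycycline at 37 °C, 5% CO2. The stable Flp-In 293 T-REx line expresses full-length TNFα (amino acids 1-233) with Gaussia luciferase fused to its 3′ end, inducibly via T-REx.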

[5] = test system: multiple myeloma cell line NCI-H929; assay: H929 Cell Viability Assay; format: cell-based, human; settings: Homo sapiens, NCI-H929, 48 h, NCI-H929 cells, Celltiter-Glo
Summary of the method: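 Plate the myeloma cells in RPMI 1640 with 10% FBS, add serially diluted compound, incubate for 48 hours at 37° C, then add CellTiter-Glo and read luciferase signal.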

[6] = test system: PD1-ss+10aa/Gaussia Luciferase; assay: Dox-Induced PD1-ss-Gluc Assay; format: cell-based; settings: 24 hr Dox induction, 293FRT/TO cells, read-out: 24 hr Dox Inducible PD1ssGluc 293FRT/TO: Mean IC50
Summary of the method: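 Flp-In 293 T-REx cells stably carrying a doxycycline-inducible Gaussia luciferase fused to the PD1 signal sequence plus 10 aa were plated the day before. Compound dilutions in DMSO/media containing doxycycline were then added and incubated at 37 °C, 5% CO2. Data for undefined stereochemistry refer to stereoisomer mixtures.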

[7] = test system: HER3-ss+4aa/Gaussia Luciferase; assay: Dox-Induced Her3-ss-Gluc Assay; format: cell-based; settings: 24 hr Dox induction, 293FRT/TO cells, read-out: 24 hr Dox Inducible Her3(ss + 4)Gluc 293FRT/TO: Mean IC50
Summary of the method: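 Expression of a Gaussia luciferase reporter carrying the HER3 signal sequence plus 4 amino acids is induced by doxycycline in stably transfected Flp-In 293 T-REx cells. Compounds are added with doxycycline at 37° C., 5% CO2. Undefined stereocentres denote stereoisomer mixtures.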

[8] = Liver Microsome Stability Assay (rat); settings: rat liver microsomes, with NADPH, 1.0 uM compound
Method: as §1

[9] = test system: IL-2-FL/Gaussia Luciferase; assay: Dox Induced IL2-FL-Gluc Assay; format: cell-based; settings: for IC50: 24 hr Dox induction, 293FRT/TO cells, read-out: 24 hr Dox Inducible IL2FLGluc 293FRT/TO: Mean IC50; for 24 hr Dox Inducible IL2FLGluc 293FRT/TO: IL2/PD1: ratio of IL2FLGluc IC50 to PD1ssGluc IC50
Summary of the method: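 Reporter is Gaussia luciferase fused to the 3′ end of full-length IL-2 (aa 1-153), expressed from a doxycycline-inducible T-REx construct in stably selected Flp-In 293 cells. Compounds were co-added with doxycycline and incubated at 37° C, 5% CO2.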

[10] = test system: multiple myeloma cell line U266B1; assay: U266 Cell Viability Assay; format: cell-based, human; settings: Homo sapiens, U-266, 48 h, U266B1 cells, Celltiter-Glo
Summary of the method: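 48 h treatment, 37° C./5% CO2, RPMI 1640 + 10% FBS; viability by CellTiter-Glo luminescence.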

[11] = '<=>' given where both are I.A.

Liver Microsome Stability (Multiple Species): Monkey - % Remaining after 30 min w/NADPH [1] [%]	Liver Microsome Stability (Multiple Species): Mouse - % Remaining after 30 min w/NADPH [2] [%]	Liver Microsome Stability (Multiple Species): Human - % Remaining after 30 min w/NADPH [3] [%]	IC50 [4] [µM]	EC50 [5] [µM]	IC50 [6] [µM]	IC50 [7] [µM]	Liver Microsome Stability (Multiple Species): Rat - % Remaining after 30 min w/NADPH [8] [%]	IC50 [9] [µM]	EC50 [10] [µM]	IC50 ([4]; mean) [µM]	IC50 ([6]; mean) [µM]	IC50 ([7]; mean) [µM]	IC50 ([9]; mean) [µM]	SMILES	24 hr Dox Inducible TNFaFLGluc 293FRT/TO: TNF/PD1 [4]	24 hr Dox Inducible IL2FLGluc 293FRT/TO: IL2/PD1 [9]	24 hr Dox Inducible TNFaFLGluc 293FRT/TO: TNF/PD1 [4, 11]	24 hr Dox Inducible IL2FLGluc 293FRT/TO: IL2/PD1 [9, 11]
0.78	13.7	1.39	0.164	0.203	0.0106	0.0194	6.39	0.027	> 25					CC(=O)NCc1ccc(N2CCC[C@@H]2c2csc(NC(=O)c3cccn3Cc3ccnc(F)c3)n2)cc1 [Compound A64, (R)-N-(4-(1-(4-(acetamidomethyl)phenyl)pyrrolidin-2-yl)thiazol-2-yl)-1-((2-fluoropyridin-4-yl)methyl)-1H-pyrrole-2-carboxamide]	15.4	2.5		
0.35	0.5	0.28		16.7			0.9		20.3	21.4	1.14	3.15	10.9	O=C(Nc1nc([C@@H]2CCN(c3ccccn3)C2)cs1)c1cccn1Cc1ccncc1 [Compound E43, (R)-N-(4-(1-(pyridin-2-yl)pyrrolidin-3-yl)thiazol-2-yl)-1-(pyridin-4-ylmethyl)-1H-pyrrole-2-carboxamide]			18.8	9.6
2.29	49.8	0.62	22.5	16	2.18	5.06	21.3	6.96	6.49					O=C(Nc1nc([C@H]2CCCN2c2ccc(C3CCCCN3)cc2)cs1)c1cccn1Cc1ccncc1 (stereo partly drawn) [Compound A59, N-(4-((2R)-1-(4-(piperidin-2-yl)phenyl)pyrrolidin-2-yl)thiazol-2-yl)-1-(pyridin-4-ylmethyl)-1H-pyrrole-2-carboxamide]	10.3	3.2		
26	62.6	28.6	3.88	3.31	0.167	0.415	30	0.408	6.95					NCc1ccc(N2CCC[C@@H]2c2csc(NC(=O)c3cccn3Cc3ccncc3)n2)cc1 [Compound A44, (R)-N-(4-(1-(4-(aminomethyl)phenyl)pyrrolidin-2-yl)thiazol-2-yl)-1-(pyridin-4-ylmethyl)-1H-pyrrole-2-carboxamide]	23.3	2.4		
15.4	29.4	38	0.0811	0.0774	0.00262	0.00619	42.5	0.00801	> 25					O=C(Nc1ccc(N2CCC[C@@H]2c2csc(NC(=O)c3cccn3Cc3ccnc(F)c3)n2)cc1)O[C@H]1CCOC1 [Compound A174, (S)-tetrahydrofuran-3-yl (4-((R)-2-(2-(1-((2-fluoropyridin-4-yl)methyl)-1H-pyrrole-2-carboxamido)thiazol-4-yl)pyrrolidin-1-yl)phenyl)carbamate]	30.9	3.1		
2.65	0.45	0.33	> 25	12.8	0.14	0.725	1.16	1.75	15.8					O=C(Nc1nc(/C=C/c2ccc3c(n2)CCCC3)cs1)c1cccn1Cc1ccnc(F)c1 [Compound B60, (E)-1-((2-fluoropyridin-4-yl)methyl)-N-(4-(2-(5,6,7,8-tetrahydroquinolin-2-yl)vinyl)thiazol-2-yl)-1H-pyrrole-2-carboxamide]	>179	13		
0.08	7.82	0.18	> 25	24.5	0.12	> 25	4.75	> 25	> 25					CCn1cnc(/C=C/c2csc(NC(=O)c3cccn3Cc3ccnc(F)c3)n2)c1 [Compound B65, (E)-N-(4-(2-(1-ethyl-1H-imidazol-4-yl)vinyl)thiazol-2-yl)-1-((2-fluoropyridin-4-yl)methyl)-1H-pyrrole-2-carboxamide]	>208	>210		
0.38	3.02	0.82	4.7	> 25	0.0882	1.1	2.09	1.56	> 25					O=C(Nc1nc(/C=C/C2CN(c3ccccc3)CCO2)cs1)c1cccn1Cc1ccncc1 (stereo not drawn) [Compound B18, (E)-N-(4-(2-(4-phenylmorpholin-2-yl)vinyl)thiazol-2-yl)-1-(pyridin-4-ylmethyl)-1H-pyrrole-2-carboxamide]	53.3	18		
0.03	12.7	0.85	> 25	20.9	0.686	2.73	11.5	11	> 25					CC(C)n1cc(/C=C/c2csc(NC(=O)c3cccn3Cc3ccnc(F)c3)n2)nc1C#N [Compound B93, (E)-N-(4-(2-(2-cyano-1-isopropyl-1H-imidazol-4-yl)vinyl)thiazol-2-yl)-1-((2-fluoropyridin-4-yl)methyl)-1H-pyrrole-2-carboxamide]	>36.4	16		
